Assay results: ChEMBL document CHEMBL1134704, “Design, synthesis, and SAR of amino acid derivatives as factor Xa inhibitors” (Bioorg Med Chem Lett, 2001)
pIC50: −log10 of the molar value.

Key:
[1] = Oral bioavailability in rat; format: ADME, organism-based; details: in vivo
[2] = target: Vitamin K-dependent protein C (Homo sapiens, UniProt P04070); experiment: Inhibitory activity against activated protein C (APC)
Coagulation factor X [3] = target: T1, Coagulation factor X (Homo sapiens, UniProt P00742); experiment: In vitro inhibition of human coagulation factor Xa.
T1 sequence (P00742 41-179 limits assumed): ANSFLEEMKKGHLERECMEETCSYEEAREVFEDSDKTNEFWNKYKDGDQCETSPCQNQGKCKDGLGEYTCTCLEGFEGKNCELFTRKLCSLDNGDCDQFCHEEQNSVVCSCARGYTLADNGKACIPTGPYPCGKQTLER
T1 sequence (P00742 235-488 limits assumed): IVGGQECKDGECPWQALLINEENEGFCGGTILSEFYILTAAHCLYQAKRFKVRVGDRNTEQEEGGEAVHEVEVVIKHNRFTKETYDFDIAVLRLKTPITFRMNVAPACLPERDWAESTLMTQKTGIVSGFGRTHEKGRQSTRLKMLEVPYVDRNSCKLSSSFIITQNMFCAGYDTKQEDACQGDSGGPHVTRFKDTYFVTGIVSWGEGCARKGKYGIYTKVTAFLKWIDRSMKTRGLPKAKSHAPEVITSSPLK

Plasminogen = Plasminogen (Homo sapiens, UniProt P00747); experiment: Inhibitory activity against plasmin
Plasminogen, sequence (P00747 97-580 limits assumed): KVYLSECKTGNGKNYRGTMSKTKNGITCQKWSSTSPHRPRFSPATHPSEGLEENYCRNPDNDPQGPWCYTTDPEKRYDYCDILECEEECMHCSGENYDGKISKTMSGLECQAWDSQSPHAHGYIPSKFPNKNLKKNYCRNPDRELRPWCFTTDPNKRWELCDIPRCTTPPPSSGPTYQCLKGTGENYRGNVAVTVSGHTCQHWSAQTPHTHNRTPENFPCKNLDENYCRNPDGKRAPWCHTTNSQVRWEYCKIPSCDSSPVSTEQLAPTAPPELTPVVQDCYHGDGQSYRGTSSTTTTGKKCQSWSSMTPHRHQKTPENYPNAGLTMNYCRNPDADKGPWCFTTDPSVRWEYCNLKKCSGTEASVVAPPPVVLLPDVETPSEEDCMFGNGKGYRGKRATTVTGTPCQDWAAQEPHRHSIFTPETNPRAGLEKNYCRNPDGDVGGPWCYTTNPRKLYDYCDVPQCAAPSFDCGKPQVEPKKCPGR
Plasminogen, sequence (P00747 581-810 limits assumed): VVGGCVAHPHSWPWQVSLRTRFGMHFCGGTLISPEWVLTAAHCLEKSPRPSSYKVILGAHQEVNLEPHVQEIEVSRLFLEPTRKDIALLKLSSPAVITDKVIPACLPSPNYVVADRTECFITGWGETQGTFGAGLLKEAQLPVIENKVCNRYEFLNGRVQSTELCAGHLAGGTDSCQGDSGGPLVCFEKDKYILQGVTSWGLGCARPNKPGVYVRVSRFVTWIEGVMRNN

Prothrombin = Prothrombin (Homo sapiens, UniProt P00734); experiment: In vitro inhibition of human thrombin.
[4] = target: Tissue-type plasminogen activator (Homo sapiens, UniProt P00750); experiment: Inhibitory activity against Tissue plasminogen activator
Tissue-type plasminogen activator, sequence (P00750 whole entry): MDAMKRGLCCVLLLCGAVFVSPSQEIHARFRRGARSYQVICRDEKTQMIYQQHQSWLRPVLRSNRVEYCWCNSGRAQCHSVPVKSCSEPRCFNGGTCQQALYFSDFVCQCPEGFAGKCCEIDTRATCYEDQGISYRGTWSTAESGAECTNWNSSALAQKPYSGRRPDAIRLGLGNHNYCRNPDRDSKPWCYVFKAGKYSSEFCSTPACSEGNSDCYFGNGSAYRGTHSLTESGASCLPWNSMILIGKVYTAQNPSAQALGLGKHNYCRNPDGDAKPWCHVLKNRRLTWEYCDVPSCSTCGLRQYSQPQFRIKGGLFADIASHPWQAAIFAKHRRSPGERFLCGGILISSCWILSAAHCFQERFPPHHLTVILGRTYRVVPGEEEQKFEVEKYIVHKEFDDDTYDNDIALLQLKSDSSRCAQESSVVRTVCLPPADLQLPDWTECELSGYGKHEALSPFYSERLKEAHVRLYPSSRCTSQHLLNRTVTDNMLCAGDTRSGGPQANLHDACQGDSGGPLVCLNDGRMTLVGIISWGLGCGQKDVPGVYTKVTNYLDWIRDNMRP

Serine protease 1 = Serine protease 1 (Homo sapiens, UniProt P07477); experiment: In vitro inhibition of human trypsin.
Serine protease 1, sequence (P07477 whole entry): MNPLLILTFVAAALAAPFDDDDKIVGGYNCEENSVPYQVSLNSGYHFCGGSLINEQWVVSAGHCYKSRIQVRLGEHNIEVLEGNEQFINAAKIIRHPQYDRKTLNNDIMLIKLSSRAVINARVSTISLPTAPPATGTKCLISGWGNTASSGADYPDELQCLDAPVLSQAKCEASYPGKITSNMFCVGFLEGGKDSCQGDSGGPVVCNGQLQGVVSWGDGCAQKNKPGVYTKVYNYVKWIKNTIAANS

Coagulation factor X [5] = target: T1, Coagulation factor X; experiment: Inhibitory activity against Coagulation factor X was determined

Vitamin K-dependent protein C, sequence (P04070 43-197 limits assumed): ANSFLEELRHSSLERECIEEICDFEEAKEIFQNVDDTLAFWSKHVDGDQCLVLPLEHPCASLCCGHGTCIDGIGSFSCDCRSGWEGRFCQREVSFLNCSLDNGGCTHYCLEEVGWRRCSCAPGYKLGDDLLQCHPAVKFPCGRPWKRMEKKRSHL
Vitamin K-dependent protein C, sequence (P04070 212-461 limits assumed): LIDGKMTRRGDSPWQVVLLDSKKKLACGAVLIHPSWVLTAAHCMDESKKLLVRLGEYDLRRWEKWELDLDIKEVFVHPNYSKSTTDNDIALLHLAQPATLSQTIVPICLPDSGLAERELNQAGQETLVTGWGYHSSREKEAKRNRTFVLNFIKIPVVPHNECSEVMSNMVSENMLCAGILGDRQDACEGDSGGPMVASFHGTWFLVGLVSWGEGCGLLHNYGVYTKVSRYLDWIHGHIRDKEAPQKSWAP

Compound | bioavailability [1] [%] | pIC50 [2] | pIC50 (Coagulation factor X [3]) | pIC50 (Plasminogen) | pIC50 (Prothrombin) | pIC50 [4] | pIC50 (Serine protease 1) | pIC50 (Coagulation factor X [5])
N=C(N)c1cccc(C(=O)N2Cc3ccc(O)cc3C[C@H]2C(=O)Nc2ccc(-c3ccccc3S(N)(=O)=O)cc2)c1 | – | – | 7.01 | – | < 5.00 | – | 6.05 | –
N=C(N)c1cccc(C(=O)N[C@@H](CCC(=O)O)C(=O)Nc2ccc(-c3ccccc3S(N)(=O)=O)cc2)c1 | – | – | 5.84 | – | < 5.00 | – | < 5.00 | –
N=C(N)c1cccc(C(=O)N2Cc3ccccc3C[C@H]2C(=O)Nc2ccc(-c3ccccc3S(N)(=O)=O)cc2)c1 | < 5 | 4.14 | 8.52 | 4.11 | < 5.00 | 3.74 | 5.67 | –
N=C(N)c1cccc(C(=O)N[C@@H](CCC(=O)OC2CCCCC2)C(=O)Nc2ccc(-c3ccccc3S(N)(=O)=O)cc2)c1 | – | – | 6.07 | – | < 5.00 | – | < 5.00 | –
N=C(N)c1cccc(C(=O)N[C@H](C(=O)Nc2ccc(-c3ccccc3S(N)(=O)=O)cc2)C2CCCCC2)c1 | – | – | 6.20 | – | < 5.00 | – | < 5.10 | –
N=C(N)c1cccc(C(=O)NCC(=O)Nc2ccc(-c3ccccc3S(N)(=O)=O)cc2)c1 | – | – | 6.07 | – | < 5.00 | – | < 5.00 | –
N=C(N)c1cccc(C(=O)N2Cc3ccccc3C[C@@H]2C(=O)Nc2ccc(-c3ccccc3S(N)(=O)=O)cc2)c1 | – | – | 7.73 | – | < 5.00 | – | 5.36 | –
N=C(N)c1cccc(C(=O)N2Cc3ccc(O)cc3C[C@@H]2C(=O)Nc2ccc(-c3ccccc3S(N)(=O)=O)cc2)c1 | – | – | 5.75 | – | < 5.00 | – | < 5.00 | –
N=C(N)c1cccc(C(=O)N2CCC[C@H]2C(=O)Nc2ccc(-c3ccccc3S(N)(=O)=O)cc2)c1 | – | – | < 5.00 | – | < 5.00 | – | < 5.00 | –
N=C(N)c1cccc(C(=O)N[C@@H](CC(=O)OC2CCCCC2)C(=O)Nc2ccc(-c3ccccc3S(N)(=O)=O)cc2)c1 | – | – | 7.26 | – | < 5.00 | – | 5.32 | –
Nc1nccc2ccc(C(=O)N3Cc4ccccc4C[C@H]3C(=O)Nc3ccc(-c4ccccc4S(N)(=O)=O)cc3)cc12 | – | – | – | – | < 5.00 | – | – | 5.56

Results, then the compound that gave them:

bioavailability [1] [%] | pIC50 [2] | pIC50 (Coagulation factor X [3]) | pIC50 (Plasminogen) | pIC50 (Prothrombin) | pIC50 [4] | pIC50 (Serine protease 1) | pIC50 (Coagulation factor X [5]) | Compound
< 5 | 5.18 | 7.46 | 4.74 | < 5.00 | < 3.74 | 5.75 | – | N=C(N)c1cccc(C(=O)N[C@@H](C(=O)Nc2ccc(-c3ccccc3S(N)(=O)=O)cc2)c2ccccc2)c1
– | – | – | – | < 5.00 | – | – | < 5.00 | Nc1noc2ccc(C(=O)N[C@@H](C(=O)Nc3ccc(-c4ccccc4S(N)(=O)=O)cc3)c3ccccc3)cc12
– | – | 6.19 | – | < 5.00 | – | 5.25 | – | N=C(N)c1cccc(C(=O)N[C@@H](CCC(=O)OCc2ccccc2)C(=O)Nc2ccc(-c3ccccc3S(N)(=O)=O)cc2)c1
– | – | 5.46 | – | < 5.00 | – | – | – | Nc1[nH]nc2ccc(C(=O)N[C@@H](C(=O)Nc3ccc(-c4ccccc4S(N)(=O)=O)cc3)c3ccccc3)cc12
– | – | 6.17 | – | < 5.00 | – | < 5.00 | – | CC(C)[C@H](NC(=O)c1cccc(C(=N)N)c1)C(=O)Nc1ccc(-c2ccccc2S(N)(=O)=O)cc1
– | – | 7.46 | – | < 5.00 | – | < 5.00 | – | CC(C)[C@@H](NC(=O)c1cccc(C(=N)N)c1)C(=O)Nc1ccc(-c2ccccc2S(N)(=O)=O)cc1
– | – | 7.50 | – | < 5.00 | – | < 5.00 | – | N=C(N)c1cccc(C(=O)N[C@H](Cc2ccccc2)C(=O)Nc2ccc(-c3ccccc3S(N)(=O)=O)cc2)c1
– | – | 6.47 | – | < 5.00 | – | 5.29 | – | N=C(N)c1cccc(C(=O)N[C@H](C(=O)Nc2ccc(-c3ccccc3S(N)(=O)=O)cc2)c2ccccc2)c1
– | – | 6.12 | – | < 5.00 | – | < 5.00 | – | N=C(N)c1cccc(C(=O)N[C@@H](Cc2ccccc2)C(=O)Nc2ccc(-c3ccccc3S(N)(=O)=O)cc2)c1
– | – | 5.00 | – | 5.00 | – | – | – | Nc1[nH]nc2ccc(C(=O)N[C@H](C(=O)Nc3ccc(-c4ccccc4S(N)(=O)=O)cc3)c3ccccc3)cc12
